Results from patent US9682999B2, “Benzofuran compounds for the treatment of hepatitis C virus infections” (Glaxo Group Limited, priority 2011, dated 2017).

How the values were obtained:
[1] = In vivo pharmacokinetic study, rat; conditions: for DNAUC / T 1/2: Rat; for clearance / Vd / bioavailability: rat, blood; for clearance / Vd: intravenous; for Vd: read-out: Vss; for bioavailability: oral
Procedure: (§1) In vivo pharmacokinetic studies were conducted in mouse, rat, dog, or cynomolgus monkey to determine clearance, oral exposure and bioavailability (% F). Solution doses of the compounds were administered intravenously through catheters or orally by gavage. Blood samples were collected at the following time points (n=2 or 3/route/species): 0.083 (IV only), 0.167 (IV only), 0.25, 0.5, 1, 2, 4, 6, 8, 12, and 24 h. Non-compartmental pharmacokinetic parameters were determined using Phoenix Winnonlin 6.1 (Pharsight, Mountain View, Calif.). Bioavailability of the oral formulation of each compound were calculated as the ratio of the oral dose normalized AUCinf to the intravenous dose normalized AUCinf. Results are expressed in Table 2.

[2] = Hepatocyte incubations, metabolic stability; format: in vitro ADME; design: dose or concentration left out as unconfirmed; conditions: cryopreserved human hepatocytes, 0.25×10^6 cells, up to 120 min, 37 C
Procedure: Hepatocyte incubations were conducted using cryopreserved hepatocytes purchased from CellzDirect (Durham, N.C.). Cryopreserved hepatocytes were removed from liquid nitrogen and thawed according to XenoTech's guidelines listed in “XenoTech Protocol for Thawing Cryopreserved Hepatocytes” using Hepatocyte Isolation Kit K2000 (Dec. 13, 2004). Hepatocytes were diluted to 1 million cells in 1 mL of Williams E media containing 25 mM HEPES buffer and 2 mM Glutamax.
Hepatocyte incubations were carried out in 96-well plates on an Eppendorf shaker at 350 rpm at 37 C. Reaction mixtures consisted of 0.25×10^6 cells and […] test compound (to maintain a 0.05% final DMSO concentration) in a final volume of 0.5 mL. An initial time-point (t0) was collected and subsequent aliquots were collected at 15, 30, 60, 90, and 120 min. Reactions were terminated by transferring […] of the incubation mixture into a 96-well plate containing […] of an organic mixture [acetonitrile and methanol (80:20)] at 4° C. Precipitated protein was removed by centrifugation and the resultant supernatant was transferred to a new 96-well polypropylene plate for LC/MS/MS analysis. Drug-free matrix control and 2 QC standards (phenacetin and propranolol) were included in each experiment and treated in the same manner as test compound.
Metabolic stability expressed as the percentage of parent compound remaining was calculated from the peak area ratio of compound remaining after incubation (tx) compared to the time zero (t0) incubation.
The half-life (t1/2) was calculated using the following equation: […]
Where K is the slope of the ln % remaining vs. time regression. Half-life values were only reported when at least 15% loss of parent compound was observed.

[3] = In vivo pharmacokinetic study, mouse; conditions: for clearance / Vd / bioavailability: blood; for clearance / Vd: intravenous; for Vd: read-out: Vss; for bioavailability: oral
Procedure: as §1

[4] = In vivo pharmacokinetic study, dog; conditions: for DNAUC / T 1/2: Dog; for clearance / Vd / bioavailability: dog, blood; for clearance / Vd: intravenous; for Vd: read-out: Vss; for bioavailability: oral
Procedure: as §1

[5] = In vivo pharmacokinetic study, monkey; design: species or system cynomolgus monkey; conditions: for clearance / Vd / bioavailability: cynomolgus monkey; for clearance / Vd: intravenous; for Vd: read-out: Vss; for bioavailability: oral
Procedure: as §1

[6] = test system: sub-genomic HCV NS3-NS5B replicon genotype 1a (Huh-7 cells); assay: Replicon luciferase cell based assay, genotype 1a; conditions: Hepatitis C virus; Huh-7 genotype 1a luciferase replicon, 48 hours; read-out: EC50 GT 1a
Procedure: (§2) 150 μL of a 1 mM stock solution in DMSO of each test compound was transferred into in the first column of a 96 well, V-bottom microplate, to give 200 times the top concentration of the required dilution series. Aliquots of 50 μL were added to each well of the remaining rows containing 100 μL of DMSO giving a 1:3 dilution series over ten points. Columns 11 and 12 contained DMSO only for the positive and negative control, respectively. 10 μL of each well were transferred into 90 μL of DMEM medium (Invitrogen #41965-039) supplemented with 5% v/v foetal calf serum, 1% v/v non-essential amino acids solution, 100 units/ml penicillin, 100 μg/ml streptomycin and 2 mM L-glutamine to give 20 times the top concentration of the required dilution series.
(§3) Suspensions were prepared from cultures of Huh-7 cells stably transfected with sub-genomic HCV NS3-NS5B replicons of either genotype 1b (the ET subline described by Pietschmann, T., Lohmann, V., Kaul, A., Krieger, N., Rinck, G., Rutter, G., Strand, D. & Bartenschlager, R., Journal of Virology, 2002, 76, 4008-4021), genotype 1a (subline 1.19 constructed in-house from H77 SG-Neo containing adaptive mutations P1496L and S2204I as described by Blight, K. J., McKeating, J. A., Marcotrigiano, J., and Rice, C. M. Journal of Virology, 2003, 77, 3180-3190), genotype 1b C316N (constructed in-house by site directed mutagenesis of the NS5B gene of the ET subline), or genotype 1a C316Y (constructed in-house by site directed mutagenesis of the NS5B gene of H77 SG-Neo containing adaptive mutations P1496L and S2204I as described by Blight, K. J., McKeating, J. A., Marcotrigiano, J., and Rice, C. M. Journal of Virology, 2003, 77, 3180-3190) linked to a firefly luciferase reporter gene. Monolayers nearing confluency were stripped from growth flasks with versene-trypsin solution and the cells re-suspended in assay medium comprising DMEM. 95 μL of suspension containing either 15,000 cells (genotype 1b luciferase replicon) or 20,000 cells (genotype 1a luciferase replicon) were added to all wells of a 96 well plate (Perkin Elmer, #6005686), except medium controls in column 12 of the assay plate. The cell suspension was dosed with 5 μL of compound solution and the plate was incubated for 48 hours at 37° C. in a 5% CO2 atmosphere.
(§4) For toxicity the cells in one plate were treated with Cell Titer Glo (Promega, #G7573). A solution of Cell Titer Glo was prepared according to the manufacturer's instructions, and 100 μL added to each well. The plate was then read for luminescence on an Envision. For potency a solution of Steady Glo (Promega, #E2550) was prepared according to the manufacturer's instructions and 100 μL added to each well. After a twenty minute incubation the plate was then read for luminescence on an Envision.
(§5) Potency: The luminescence values from all compound-free wells containing cells were averaged to obtain a positive control value. The mean luminescence value from the compound-free wells that had received no cells was used to provide the negative (background) control value. The readings from the wells at each compound concentration were taken and after the subtraction of the mean background from all values, were expressed as a percentage of the positive control signal. The quantifiable and specific reduction of luciferase signal in the presence of a drug is a direct measure of replicon inhibition. BioAssay Enterprise (CamebridgeSoft) with the XC50 module for curve fitting was used to plot the curve of percentage inhibition against compound concentration and derive the 50% inhibitory concentration (EC50) for the compound. EC50 is the effective concentration, that is, the concentration of compound where 50% maximal effect is observed. The EC50 values of two identical plates were averaged. The results are presented in Table 1 as EC50 for genotypes (GT) 1a, 1b, 1b 316N and 1a 316Y.

[7] = test system: sub-genomic HCV NS3-NS5B replicon genotype 1b (Huh-7 cells); assay: Replicon luciferase cell based assay, genotype 1b; conditions: Hepatitis C virus; Huh-7 genotype 1b luciferase replicon, 48 hours; read-out: EC50 GT1b
Procedure: as §2, §3, §4, §5

[8] = test system: sub-genomic HCV NS3-NS5B replicon genotype 1b C316N (Huh-7 cells); assay: Replicon luciferase cell based assay, genotype 1b C316N; conditions: Hepatitis C virus, Huh-7, 48 h, read-out: EC50 1b 316N
Procedure: as §2, §3, §4, §5

[9] = test system: sub-genomic HCV NS3-NS5B replicon genotype 1a C316Y (Huh-7 cells); assay: Replicon luciferase cell based assay, genotype 1a C316Y; conditions: Hepatitis C virus, Huh-7, 48 h, read-out: EC50 1a 316Y
Procedure: as §2, §3, §4, §5

Row | Structure (SMILES) | DNAUC [1] | T 1/2 [1] | clearance [1] | Vd [1] | bioavailability [1] | half-life [2] | DNAUC ([3]; Mouse (avg)) | T 1/2 ([3]; Mouse (avg)) | DNAUC [4] | T 1/2 [4] | clearance [4] | Vd [4] | bioavailability [4] | EC50 [6] | EC50 [7] | EC50 [8] | EC50 [9] | T 1/2 ([5]; Monkey) | clearance ([5]; blood) | Vd ([5]; blood) | further results
1 | CNC(=O)c1c(-c2ccc(F)cc2)oc2cc(N(Cc3ccc(B(O)O)c(Cl)c3)S(C)(=O)=O)c(C3CC3)cc12 [B] | 122 ng·h/mL/mg/kg | 1.1 H | 33.1 mL/min/kg | 2.5 L/kg | 23% | 0.75 h |  |  |  |  |  |  |  |  |  |  |  |  |  |  | 
2 | CNC(=O)c1c(-c2ccc(F)cc2)oc2cc(N(c3cc(Cl)c4c(c3)COB4O)S(C)(=O)=O)c(C3CC3)cc12 [Example 15, 6-(N-(7-chloro-1-hydroxy-1,3-dihydrobenzo[c][1,2]oxaborol-5-yl)methylsulfonamido)-5-cyclopropyl-2-(4-fluorophenyl)-N-methylbenzofuran-3-carboxamide] | 1089 ng·h/mL/mg/kg | 2.8 H | 6.9 mL/min/kg | 0.9 L/kg | 43% | > 6 h |  |  | 11480 ng·h/mL/mg/kg | 6.9 H | 1.2 mL/min/kg | 0.6 L/kg | 82% | 1 to 10 nM | 1 to 10 nM | 1 to 10 nM | 11 to 200 nM | 3.7 H | 5.7 mL/min/kg | 1.2 L/kg | DNAUC ([3]; Mouse): 14603 ng·h/mL/mg/kg; T 1/2 ([3]; Mouse): 8.4 H; clearance ([3]; mouse): 0.7 mL/min/kg; Vd ([3]; mouse): 0.4 L/kg; bioavailability ([3]; mouse): 39%
3 | CNC(=O)c1c(-c2ccc(F)cc2)oc2cc(N(c3ccc(B(O)O)c(Cl)c3)S(C)(=O)=O)c(C3CC3)cc12 [Example 1, (2-Chloro-4-(N-(5-cyclopropyl-2-(4-fluorophenyl)-3-(methylcarbamoyl)benzofuran-6-yl)methylsulfonamido)phenyl)boronic acid] | 567 ng·h/mL/mg/kg | 2.9 H | 7.5 mL/min/kg | 1.3 L/kg | 23% | > 6 h |  |  | 6438 ng·h/mL/mg/kg | 8.7 H | 2.3 mL/min/kg | 1.6 L/kg | 83% | 1 to 10 nM | 1 to 10 nM | 1 to 10 nM | 1 to 10 nM | 3.7 H | 2.2 mL/min/kg | 0.5 L/kg | DNAUC ([3]; Mouse): 6688 ng·h/mL/mg/kg; T 1/2 ([3]; Mouse): 5.5 H; clearance ([3]; mouse): 0.9 mL/min/kg; Vd ([3]; mouse): 0.4 L/kg; bioavailability ([3]; mouse): 37%; DNAUC ([5]; Monkey): 2953 ng·h/mL/mg/kg; bioavailability ([5]; blood): 51%
4 | CNC(=O)c1c(-c2ccc(F)cc2)oc2cc(N(c3ccc(B(O)O)c(C(F)(F)F)c3)S(C)(=O)=O)c(C3CC3)cc12 [Example 10, (4-(N-(5-cyclopropyl-2-(4-fluorophenyl)-3-(methylcarbamoyl)benzofuran-6-yl)methylsulfonamido)-2-(trifluoromethyl)phenyl)boronic acid] |  |  |  |  |  |  |  |  |  |  |  |  |  | 1 to 10 nM | 1 to 10 nM | 1 to 10 nM | 11 to 200 nM |  |  |  | 

More lines, main results first:

Row | DNAUC [1] | T 1/2 [1] | clearance [1] | Vd [1] | bioavailability [1] | half-life [2] | DNAUC ([3]; Mouse (avg)) | T 1/2 ([3]; Mouse (avg)) | Structure (SMILES) | DNAUC [4] | T 1/2 [4] | clearance [4] | Vd [4] | bioavailability [4] | EC50 [6] | EC50 [7] | EC50 [8] | EC50 [9] | T 1/2 ([5]; Monkey) | clearance ([5]; blood) | Vd ([5]; blood) | further results
5 | 403 ng·h/mL/mg/kg | 2.2 H | 18.6 mL/min/kg | 0.8 L/kg | 45% | 1.03 h | 4108 ng·h/mL/mg/kg | 5 H | CNC(=O)c1c(-c2ccc(F)cc2)oc2cc(N(Cc3ccc(B(O)O)c(F)c3)S(C)(=O)=O)c(C3CC3)cc12 [D] | 1147 ng·h/mL/mg/kg | 4.5 H | 10.8 mL/min/kg | 3.6 L/kg | 70% |  |  |  |  |  |  |  | clearance ([3]; Mouse (avg)): 1.4 mL/min/kg; Vd ([3]; Mouse (avg)): 0.6 L/kg; bioavailability ([3]; Mouse (avg)): 37%; DNAUC ([5]; Monkey (plasma)): 101 ng·h/mL/mg/kg; T 1/2 ([5]; Monkey (plasma)): 1.1 H; clearance ([5]; Monkey (plasma)): 48.4 mL/min/kg; Vd ([5]; Monkey (plasma)): 1.8 L/kg; bioavailability ([5]; Monkey (plasma)): 28%
6 | 541 ng·h/mL/mg/kg | 1.7 H | 14.5 mL/min/kg | 1 L/kg | 47% | > 6 h | 9344 ng·h/mL/mg/kg | 4.3 H | CNC(=O)c1c(-c2ccc(F)cc2)oc2cc(N(Cc3cc(F)c4c(c3)COB4O)S(C)(=O)=O)c(C3CC3)cc12 [A] | 1074 ng·h/mL/mg/kg | 5.1 H | 12.4 mL/min/kg | 3.5 L/kg | 71% |  |  |  |  | 2.1 H | 70.1 mL/min/kg | 6.3 L/kg | clearance ([3]; Mouse (avg)): 0.9 mL/min/kg; Vd ([3]; Mouse (avg)): 0.3 L/kg; bioavailability ([3]; Mouse (avg)): 51%; DNAUC ([5]; Monkey): 33 ng·h/mL/mg/kg; bioavailability ([5]; blood): 13%
